Experimental data published in ChEMBL document CHEMBL1128613, “A water soluble benzazepine cholecystokinin-B receptor antagonist” (Bioorg Med Chem Lett, 1995).

target: T1, Cholecystokinin receptor type A (Cavia porcellus, UniProt Q63931); experiment: Binding activity towards cholecystokinin-A (CCK-A) receptor in guinea pig pancreas
T1 sequence (Q63931 whole entry): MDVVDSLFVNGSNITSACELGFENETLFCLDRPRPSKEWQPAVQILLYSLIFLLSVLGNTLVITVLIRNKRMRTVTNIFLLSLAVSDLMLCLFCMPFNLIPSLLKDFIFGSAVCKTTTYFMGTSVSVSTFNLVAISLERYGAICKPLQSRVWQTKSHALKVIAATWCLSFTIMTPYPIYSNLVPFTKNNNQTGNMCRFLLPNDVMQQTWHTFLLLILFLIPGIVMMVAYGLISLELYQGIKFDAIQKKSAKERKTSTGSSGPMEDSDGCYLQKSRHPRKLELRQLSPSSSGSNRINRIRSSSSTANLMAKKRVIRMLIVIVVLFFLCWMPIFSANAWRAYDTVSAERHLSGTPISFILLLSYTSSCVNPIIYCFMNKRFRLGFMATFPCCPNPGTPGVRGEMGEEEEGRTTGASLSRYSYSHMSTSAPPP

IC50 | SMILES
250 nM | Cc1ccc2c(c1)N(CC(=O)NC(C)(C)C)C(=O)[C@H](NC(=O)Nc1cccc(-c3nnn[nH]3)c1)C[C@@H]2C(C)C
1000 nM | Cc1ccc2c(c1)N(CC(=O)NC(C)(C)C)C(=O)[C@H](NC(=O)Nc1cccc(C(=O)Nc3nnn[nH]3)c1)C[C@@H]2c1ccccc1
1300 nM | Cc1ccc2c(c1)N(CC(=O)NC(C)(C)C)C(=O)[C@H](NC(=O)Nc1cccc(C(=O)NS(=O)(=O)c3ccccc3C)c1)C[C@@H]2c1ccccc1
34 nM | Cc1ccc2c(c1)N(CC(=O)NC(C)(C)C)C(=O)[C@H](NC(=O)Nc1cccc(-c3nnn[nH]3)c1)C[C@@H]2Cc1ccccc1
970 nM | Cc1ccc2c(c1)N(CC(=O)NC(C)(C)C)C(=O)[C@H](NC(=O)Nc1cccc(C(=O)NS(C)(=O)=O)c1)C[C@@H]2c1ccccc1
600 nM | Cc1ccc([C@H]2C[C@@H](NC(=O)Nc3cccc(-c4nn[nH]n4)c3)C(=O)N(CC(=O)NC(C)(C)C)c3cc(C)ccc32)cc1
520 nM | Cc1ccc2c(c1)N(CC(=O)NC(C)(C)C)C(=O)[C@H](NC(=O)Nc1cccc(C(=O)NS(C)(=O)=O)c1)C[C@@H]2C1CCCCC1
730 nM | Cc1ccc2c(c1)N(CC(=O)NC(C)(C)C)C(=O)[C@H](NC(=O)Nc1cccc(C(=O)NS(=O)(=O)Cc3ccccc3)c1)C[C@@H]2c1ccccc1
1300 nM | Cc1ccc2c(c1)N(CC(=O)NC(C)(C)C)C(=O)[C@H](NC(=O)Nc1cccc(C(=O)NS(=O)(=O)c3ccccc3)c1)C[C@@H]2c1ccccc1
320 nM | Cc1ccc2c(c1)N(CC(=O)NC(C)(C)C)C(=O)[C@H](NC(=O)Nc1cccc(C(=O)NS(=O)(=O)C(F)(F)F)c1)C[C@@H]2c1ccccc1
220 nM | Cc1ccc2c(c1)N(CC(=O)NC(C)(C)C)C(=O)[C@H](NC(=O)Nc1cccc(-c3nnn[nH]3)c1)C[C@@H]2CC1CCCCC1
1400 nM | Cc1ccc2c(c1)N(CC(=O)NC(C)(C)C)C(=O)[C@H](NC(=O)Nc1cccc(C(=O)O)c1)C[C@@H]2C1CCCCC1 (stereo in doubt; 2)
2300 nM | Cc1ccc2c(c1)N(CC(=O)NC(C)(C)C)C(=O)[C@H](NC(=O)Nc1cccc(C(=O)O)c1)C[C@@H]2C1CCCCC1 (stereo in doubt; 5k)
4200 nM | Cc1ccc2c(c1)N(CC(=O)NC(C)(C)C)C(=O)[C@H](NC(=O)Nc1cccc(C(=O)O)c1)C[C@@H]2c1ccccc1
620 nM | Cc1ccc2c(c1)N(CC(=O)NC(C)(C)C)C(=O)[C@H](NC(=O)Nc1cccc(-c3nnn[nH]3)c1)C[C@@H]2c1ccccc1
370 nM | COC(=O)c1cccc(NC(=O)N[C@@H]2C[C@H](C3CCCCC3)c3ccc(C)cc3N(CC(=O)NC(C)(C)C)C2=O)c1
310 nM | COC(=O)c1cccc(NC(=O)N[C@@H]2C[C@H](c3ccccc3)c3ccc(C)cc3N(CC(=O)NC(C)(C)C)C2=O)c1
490 nM | Cc1ccc2c(c1)N(CC(=O)NC(C)(C)C)C(=O)[C@H](NC(=O)Nc1cccc(-c3nnn[nH]3)c1)C[C@@H]2C1CCCCC1
1100 nM | CCS(=O)(=O)NC(=O)c1cccc(NC(=O)N[C@@H]2C[C@H](c3ccccc3)c3ccc(C)cc3N(CC(=O)NC(C)(C)C)C2=O)c1
